Test results published in patent US7560458B2, “Triazolopyrimidine derivatives as glycogen synthase kinase 3 inhibitors” (Janssen Pharmaceutica, N.V., priority 2003, dated 2009).
Where a name gives a salt, the structure may show the parent alone.

How the values were obtained:
[1] = molecular target: GSK3β (Homo sapiens, UniProt P49841); test: GSK3beta assay (SPA, biotinylated phosphorylated CREB peptide, ATP-P33); type: biochemical; settings: −log IC50 (M); given as ranges (>8; 7-8; <7); read-out: pIC50 (GSK3beta) (converted)
How it was run: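 Radiometric SPA at room temperature, pH 7.4 Tris/MgCl2/DTT/BSA/glycerol, with 5.7 ng/μl GSK3β, 5 μM biotinylated phospho-CREB peptide, 1 μM ATP plus 33P-ATP for 1 h. Stopped with streptavidin SPA beads, counted after overnight settling; % inhibition versus no-compound control, IC50 from dose-response curve.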

[2] = molecular target: GSK3alpha (Homo sapiens, UniProt P49840); test: GSK3alpha assay (same as the GSK3beta assay, GSK3alpha 0.25 ng/μl); type: biochemical; settings: −log IC50 (M); given as ranges (>8; 7-8; <7); read-out: pIC50 (GSK3alpha) (converted)
How it was run: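 GSK3α at 0.25 ng/μl phosphorylated 5 μM biotinylated phospho-CREB peptide with 1 μM ATP and 33P-ATP for 1 h at room temperature, in 25 mM Tris pH 7.4 with 10 mM MgCl2 and 1 mM DTT. Phosphorylated peptide was captured on streptavidin SPA beads and counted. IC50 was taken from dose-response curves.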

Sequence of GSK3β (P49841 whole entry, species assumed): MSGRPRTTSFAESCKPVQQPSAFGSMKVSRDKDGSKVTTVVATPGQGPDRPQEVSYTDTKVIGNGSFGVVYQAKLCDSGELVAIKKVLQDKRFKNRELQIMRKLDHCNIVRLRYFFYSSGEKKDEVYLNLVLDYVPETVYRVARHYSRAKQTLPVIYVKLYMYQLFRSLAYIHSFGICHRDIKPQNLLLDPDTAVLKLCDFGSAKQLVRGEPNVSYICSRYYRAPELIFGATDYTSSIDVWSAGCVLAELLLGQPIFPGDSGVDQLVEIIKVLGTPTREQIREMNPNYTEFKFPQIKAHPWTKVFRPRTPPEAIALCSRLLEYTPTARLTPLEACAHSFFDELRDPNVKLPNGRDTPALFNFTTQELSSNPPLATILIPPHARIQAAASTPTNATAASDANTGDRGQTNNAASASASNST
Sequence of GSK3alpha (P49840 whole entry, species assumed): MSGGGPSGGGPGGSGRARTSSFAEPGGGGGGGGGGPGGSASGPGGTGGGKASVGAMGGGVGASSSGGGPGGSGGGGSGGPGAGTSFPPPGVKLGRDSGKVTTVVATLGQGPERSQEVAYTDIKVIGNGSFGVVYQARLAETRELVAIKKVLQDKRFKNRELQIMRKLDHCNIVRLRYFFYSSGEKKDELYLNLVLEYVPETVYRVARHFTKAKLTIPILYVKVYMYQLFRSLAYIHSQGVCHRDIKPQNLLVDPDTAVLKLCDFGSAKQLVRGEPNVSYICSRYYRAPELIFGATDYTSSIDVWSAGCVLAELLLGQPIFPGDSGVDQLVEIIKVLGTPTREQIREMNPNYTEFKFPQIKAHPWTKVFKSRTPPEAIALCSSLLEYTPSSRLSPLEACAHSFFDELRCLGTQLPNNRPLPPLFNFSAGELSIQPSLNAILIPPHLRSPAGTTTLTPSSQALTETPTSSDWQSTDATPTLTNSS

| melting point [°C] | IC50 [1] [M] | IC50 [2] [M] | Compound |
| --- | --- | --- | --- |
| 220 to 224 | < 1e-08 | < 1e-08 | CC(=O)c1cccc(Nc2ncc3nnn(-c4cccc(F)c4)c3n2)c1 [Compound 2] |
| 148 | < 1e-08 | < 1e-08 | COCCOCc1cccc(-n2nnc3cnc(Nc4ccc(F)cc4)nc32)c1 [Compound 287] |
| 232 | < 1e-08 | < 1e-08 | COc1cc(Nc2ncc3nnn(-c4cccc(F)c4)c3n2)ccc1C(=O)O [Compound 298] |
| 142 to 146 | < 1e-08 | < 1e-08 | CC(C)Oc1cccc(Nc2ncc3nnn(-c4cccc(F)c4)c3n2)c1 [Compound 28] |
| 142 to 146 | < 1e-08 | < 1e-08 | COCc1cccc(-n2nnc3cnc(Nc4cccc([S+](C)[O-])c4)nc32)c1 (centres unmarked) [Compound 148] |
| 137 | 1e-08 to 1e-07 | 1e-08 to 1e-07 | CN(C)CCCOc1ccc(Nc2ncc3nnn(-c4cccc(F)c4)c3n2)cc1 [Compound 297] |

More lines, now with the values behind:

| Compound | melting point [°C] | IC50 [1] [M] | IC50 [2] [M] |
| --- | --- | --- | --- |
| Nc1cccc(Nc2ncc3nnn(-c4cccc(F)c4)c3n2)c1 (as salt: HCl) [Compound 12] | 224 | – | – |
| CC(O)c1cccc(Nc2ncc3nnn(-c4cccc(F)c4)c3n2)c1 (centres unmarked) [Compound 27] | 150 to 154 | < 1e-08 | < 1e-08 |
| CCOC(=O)/C=C/c1cccc(Nc2ncc3nnn(-c4cccc(F)c4)c3n2)c1 [Compound 9] | 214 to 218.1 | < 1e-08 | < 1e-08 |
| COc1cc(OC)cc(-n2nnc3cnc(Nc4cccc(C#N)c4)nc32)c1 [Compound 6] | 228 to 232 | < 1e-08 | < 1e-08 |
| O=C(O)/C=C/c1cccc(Nc2ncc3nnn(-c4cccc(F)c4)c3n2)c1 [Compound 10] | > 250 | < 1e-08 | < 1e-08 |
| CC(=O)NCc1cccc(Nc2ncc3nnn(-c4cccc(C(=O)O)c4)c3n2)c1 [Compound 76] | > 260 | – | – |
| C[S+]([O-])c1cccc(Nc2ncc3nnn(-c4cccc(F)c4)c3n2)c1 (centres unmarked) [Compound 152] | 168 to 172 | < 1e-08 | < 1e-08 |
| C=CCN(c1cccc(Nc2ncc3nnn(-c4cccc(CO)c4)c3n2)c1)S(C)(=O)=O [Compound 69] | 158 to 162 | < 1e-08 | 1e-08 |
| N#Cc1ccc(Nc2ncc3nnn(-c4cccc(F)c4)c3n2)cc1Cl [Compound 3] | > 260 | < 1e-08 | < 1e-08 |
| Fc1cccc(-n2nnc3cnc(Nc4cccc(Br)c4)nc32)c1 [Compound 7] | 212 to 213 | < 1e-08 | < 1e-08 |
| NS(=O)(=O)c1cccc(Nc2ncc3nnn(-c4cccc(F)c4)c3n2)c1 [Compound 1] | 177 | < 1e-08 | < 1e-08 |
| N#Cc1cccc(Nc2ncc3nnn(-c4cccc(F)c4)c3n2)c1 [Compound 8] | 228 to 230 | < 1e-08 | < 1e-08 |
| NS(=O)(=O)c1cccc(Nc2ncc3nnn(-c4cccc(-c5cnco5)c4)c3n2)c1 [Compound 57] | > 250 | < 1e-08 | < 1e-08 |
| COc1cccc(-n2nnc3cnc(Nc4cccc(C#N)c4)nc32)c1 [Compound 55] | 228 to 231 | < 1e-08 | < 1e-08 |
